The conditions of data set [1]: in vivo, po.
Procedure: (§1) The Mouse Hypercalcemia Assay is a six day hypercalcemia test for toxicity and selectivity. Acceptable test results are levels greater than 300 μg/kg/day. Preferred assay results are levels greater than 1000 μg/day.
(§2) (4) Materials and Method for the Mouse Hypercalcemia Assay:
(§3) Weanling, virus—antibody-free, five to six weeks old female DBF mice (Harlan, Indianapolis, Ind.) are used for all the studies. Animals are allowed to acclimate to local vivarium conditions for 2 days. […] The animals then are divided into groups with 4-5 mice per group. Different doses of test compounds prepared in 10% Ethanol and 90% sesame oil are administered to mice orally via gavage for 6 days. 1α-25(OH)2D3 0.5 μg/kg/d was also given to one group of mice as the positive control. […] Raw data of group differences is assessed by analysis of variance (ANOVA) using Fisher's protected least significant difference (PLSD) where the significance level was P<0.05.
In data set [2] the target is T1, RXR-VDR heterodimer (Homo sapiens, UniProt P11473).
T1 construct: Add the Gal4-RXR-DEF and VP16-VDR-LBD; expressed in transfected cells; host or cells: SaOS-2 cells
T1 sequence (P11473 127-423 limits assumed): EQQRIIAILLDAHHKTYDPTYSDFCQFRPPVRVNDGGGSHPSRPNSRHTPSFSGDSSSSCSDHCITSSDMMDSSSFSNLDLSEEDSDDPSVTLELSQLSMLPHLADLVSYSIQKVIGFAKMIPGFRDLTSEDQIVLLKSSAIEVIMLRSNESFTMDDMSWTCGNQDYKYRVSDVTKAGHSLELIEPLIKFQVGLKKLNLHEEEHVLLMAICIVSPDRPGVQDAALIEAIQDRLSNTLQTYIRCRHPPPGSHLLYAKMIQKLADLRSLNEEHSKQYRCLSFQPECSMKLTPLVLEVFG
T1 sequence (P19793 201-462 partner limits assumed): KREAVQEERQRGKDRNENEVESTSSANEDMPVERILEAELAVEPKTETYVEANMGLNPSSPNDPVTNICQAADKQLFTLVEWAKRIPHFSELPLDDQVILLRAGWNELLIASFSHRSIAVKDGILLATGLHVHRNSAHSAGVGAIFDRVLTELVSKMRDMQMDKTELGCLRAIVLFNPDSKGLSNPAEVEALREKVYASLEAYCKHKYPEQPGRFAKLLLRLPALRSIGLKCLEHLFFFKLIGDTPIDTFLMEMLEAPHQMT
As to the kind of experiment: RXR-VDR heterodimerization assay (SaOS-2 cells). Format: cell-based. The note with it: Gal4-RXR-DEF / VP16-VDR-LBD, luciferase reporter. The source says:
1. The RXR-VDR heterodimer Assay:
This assay provides the VDR activity of a test compound.
(1) Materials and Method for RXR-VDR Heterodimerization Assay:
Luciferase Assay Reagent: • Use Steady-Glo Luciferase Reagent from Promega (Cat # E2550) Consists of:
Add plain DMEM media to tubes for mixing the DNA
Add the Reporter gene pFR-LUC
Add the Gal4-RXR-DEF and VP16-VDR-LBD
Make a stock solution of the compounds in DMSO
Further dilute in D-MEM (Low Glucose—With out Phenol Red)
Read the plates after drug treatment
Add Steady-Glo Luciferase Reagent mixture/wells
Count each well using a Luminescence counter, Top Count NXT by Packard

For data set [3], the target named is T2, VDR (Homo sapiens, UniProt P11473).
T2 construct: the receptor expression vector pGal4-VDR-LBD (10 ng); expressed in transfected cells; host or cells: Caco-2 cells
T2 sequence (P11473 127-423 limits assumed): T1 sequence (P11473 127-423 limits assumed)
Nature of the data set: Caco-2 cell co-transfection assay (VDR CTF). Format: cell-based. The note with it: Caco-2 cells, pGal4-VDR-LBD co-transfection, luciferase reporter. On the procedure:
2. The Caco-2 Cell Co-Transfection Assay:
The Caco-2 cell assay is an indicator for the undesirable condition of hypercalcemia. This co-transfection assay is a surrogate assay for in vivo calcemic activity of VDR ligands. […] Preferred assay results are greater than 1000 nM.
(2) Materials and Method for The Caco-2 Cell Assay:
Caco-2 cells, grown in phenol red free, DMEM (Invitrogen, Carlsbad, Calif.) containing 10% charcoal-stripped FCS (Hyclone, Logan, Utah), were transfected with Fugene 6 reagent (Roche Diagnostics, Indianapolis, Ind.). Cells (5000/well) were plated 18 h before transfection in a 96 well plate. The Cells were transfected with Gal4-responsive reporter pFRLuc (150 ng, Stratagene, La Jolla Calif.) and the receptor expression vector pGal4-VDR-LBD (10 ng), along with Fugene 6 reagent (0.2 μl/well). The DNA-Fugene complex was formed by incubating the mixture for 30 min at room temperature. The cells were transfected in triplicate for 5 h, and treated with various concentrations of VDR ligands (form 0.01 nM to 10,000 nM concentration range) 18 h post-transfection. The luciferase activity was quantified using Steady-Glo reagent kit (Promega, Madison, Wis.) as per manufacturer's specifications.

Data set [4] has as its system rat osteocalcin promoter. Nature of the data set: OCN (osteocalcin) promoter assay. The following applies: RG-15 (ROS 17/2.8) cells, 48 hr treatment, luciferase reporter. Format: cell-based. On the procedure: 3. The OCN (osteocalcin) Promoter Assay
The OCN Promoter Assay is an indicator and marker for osteoporosis. […] Preferred assay results are less than 50 nM.
(3) Materials and Method for the OCN Promoter Assay:
The activation of osteocalcin by VDR ligands was evaluated in a rat osteoblast-like cell line RG-15 (ROS 17/2.8) stably expressing rat osteocalcin promoter fused with luciferase reporter gene. […] Confluent RG-15 cells maintained in DMEM/F-12 medium (3:1) containing 5% FBS, 300 μg/ml G418 and at 37° C. under 5% CO2/95% air atmosphere were trypsinized (0.25% trypsin) and plated into white opaque 96-well cell culture plates (25000 cells/well). After 24 hr, cells (in DMEM/F-12 medium+2% FBS) were treated with various concentrations of compounds, dissolved in DMSO. The final DMSO concentration remained at 0.01% (v/v). After 48 hr treatment, the medium was removed, cells were lysed with 50 μl of lysis buffer (From Luciferase reporter assay system, Roche Diagnostics, Indianapolis, Ind.) and assayed for luciferase activity using the Luciferase Reporter Gene Assay kit from Boehringer Mannheim as per manufacturer's specifications.

For data set [5], the system named is KERtr cells. Nature of the data set: Keratinocyte proliferation assay. Format: cell-based. The following applies: Homo sapiens, 72 hr, BrdU incorporation, read-out: Kera. Prolif. IC50. As for the experimental part:
5. The Keratinocte Proliferation Assay
This Assay is indicative for the treatment of psoriasis.
(5) The Keratinocyte Proliferation Assay:
KERtr cells (Human skin keratinocyte transformed with a retrovirus vector, obtained from ATCC) were plated in 96-well flat-bottomed plates (3000 cells/well) in 100 µl keratinocyte serum free medium supplemented with bovine pituitary extract in the absence of EGF (Life Technologies, Rockville, Md.) and incubated at 37° C. for two days. The cells were treated with various concentrations of VDR ligands (ten-fold serial dilution from 10,000 nM to 0.1 nM in triplicate), dissolved in 100 μl keratinocyte serum free medium supplemented with bovine pituitary extract in the absence of EGF and incubated at 37° C. for 72 hr. BrdU (5-bromo-2′-deoxyuridine) incorporation was analyzed as a measure of DNA replication (Cell proliferation ELISA kit, Roche Diagnostics, Indianapolis, Ind.) and absorbance was measured at 405 nm. Potency values (IC50) values were determined as the concentration (nM) of compound that elicited a half-maximal response.

A short description of data set [6]: Mouse hypercalcemia assay. The note with it: oral gavage for 6 days, serum ionized calcium 6 hours after last dosing.
Procedure: as §1, §2, §3

Like-named read-outs stand apart in the source and are kept apart here.

As for `C=C1/C(=C\C=C2/CCC[C@]3(C)[C@@H]([C@H](C)CCCC(C)(C)O)CC[C@@H]23)C[C@@H](O)C[C@@H]1O` [AA, 1α,25-dihydroxyvitamin D3], the “Mouse Hypercal” value in data set [1] worked out at 0.06 µg/kg/day.
Consider `CCC(CC)(c1ccc(OC[C@H](O)C(C)(C)C)c(C)c1)c1ccc(OS(C)(=O)=O)c(C)c1` [Ex. 1, 3′-[4-(2-hydroxy-3,3-dimethylbutoxy)-3-methylphenyl]-3′-[4-(methanesulfonyloxy)-3-methylphenyl]pentane], for which the EC50 in data set [2] came out at 3.41 nM; in data set [3], 118 nM; in data set [4] (Rattus norvegicus, 48 h), 2.72 nM.
Turning to `CCC(CC)(c1ccc(OCC(=O)C(C)(C)C)cc1)c1ccc(OS(C)(=O)=O)c(C)c1` [Ex. 36, 3′-[4-(2-oxo-3,3-dimethylbutoxy)-phenyl]-3′-[4-methylsulfonyloxy-3-methylphenyl]pentane], the EC50 in data set [2] turned out to be 15.2 nM; in data set [3], 592 nM; in data set [4] (Rattus norvegicus, 48 h), 45.5 nM. Further, in data set [5], the IC50 is 36 nM. Moreover, the “Mouse Hypercal” value in data set [6] was >3000 µg/kg/day.
Turning to `CCC(CC)(c1ccc(NS(=O)(=O)CC)c(C)c1)c1ccc(OCC(=O)C(C)(C)C)c(C)c1` [Ex. 23, N-(4-{1-[4-(3,3-Dimethyl-2-oxo-butoxy)-3-methyl-phenyl]-1-ethyl-propyl}-2-methyl-phenyl)-ethanesulfonamide], the EC50 came to 0.817 nM in data set [2]; 6.06 nM in data set [3]; 0.33 nM in data set [4] (Rattus norvegicus, 48 h). For the same compound, in data set [6], the “Mouse Hypercal” value is 500 µg/kg/day.
Consider `CCCS(=O)(=O)Nc1ccc(C(CC)(CC)c2ccc(OCC(=O)C(C)(C)C)c(C)c2)cc1C` [Ex. 26, N-(4-{1-[4-(3,3-Dimethyl-2-oxo-butoxy)-3-methyl-phenyl]-1-ethyl-propyl}-2-methyl-phenyl)-1-propanesulfonamide], for which the EC50 in data set [2] was 5.7 nM; in data set [3], 333 nM; in data set [4] (Rattus norvegicus, 48 h), 3.69 nM. In addition, the IC50 in data set [5] was 4.4 nM. For the same compound, the “Mouse Hypercal” value in data set [6] was <1000 µg/kg/day.
In the case of `CCC(CC)(c1ccc(OS(C)(=O)=O)cc1)c1ccc(OCC(=O)C(C)(C)C)c(Cl)c1` [Ex. 42, 3′-[3-chloro-4-(2-oxo-3,3-dimethylbutoxy)phenyl]-3′-[4-(methylsulfonyloxy)phenyl]pentane], the EC50 in data set [2] stood at 495 nM; in data set [3], 728 nM; in data set [4] (Rattus norvegicus, 48 h), 25.1 nM. For the same compound, in data set [5], the IC50 amounted to 9 nM. The “Mouse Hypercal” value in data set [6] is <1000 µg/kg/day.
Consider `CCCS(=O)(=O)N(c1ccc(C(CC)(CC)c2ccc(OCC(=O)C(C)(C)C)c(C)c2)cc1C)S(=O)(=O)CCC` [Ex. 25, N-(4-{1-[4-(3,3-Dimethyl-2-oxo-butoxy)-3-methyl-phenyl]-1-ethyl-propyl}-2-methyl-phenyl)-N,N-bis-1-propanesulfonamide], for which the EC50 in data set [2] was 47.3 nM; in data set [3], 1290 nM; in data set [4] (Rattus norvegicus, 48 h) it was 34.2 nM. In data set [5], the IC50 worked out at 14.6 nM.
For `CCC(CC)(c1ccc(OS(=O)(=O)C(F)(F)F)cc1)c1ccc(OCC(O)C(C)(C)C)c(Cl)c1` (stereo not drawn) [Ex. 47, 53, 3′-[3-chloro-4-(2-hydroxy-3.3-dimethylbutoxy)phenyl]-3′-(4-trifluoromethylsulfonyloxyphenyl)pentane], in that order: 12.5 nM, 431 nM, 92.5 nM and 300 nM.
Consider `CCC(CC)(c1ccc(OCC(=O)C(C)(C)C)c(C)c1)c1ccc(N(C)S(C)(=O)=O)c(C)c1` [Ex. 18, N-(4-{1-[4-(3,3-Dimethyl-2-oxo-butoxy)-3-methyl-phenyl]-1-ethyl-propyl}-2-methyl-phenyl)-N-methyl-methanesulfonamide], for which the EC50 worked out at 69.6 nM in data set [2]; 485 nM in data set [3]; 7.62 nM in data set [4] (Rattus norvegicus, 48 h). Besides, in data set [5], the IC50 amounted to 32 nM. Also, the “Mouse Hypercal” value in data set [6] was 1500 µg/kg/day.
For the compound `CCC(CC)(c1ccc(OS(C)(=O)=O)cc1)c1ccc(OCC(O)C(C)(C)C)c(Cl)c1` (single isomer, unassigned) [Ex. 44, 3′-[3-chloro-4-(2-hydroxy-3,3-dimethylbutoxy)phenyl]-3′-(4-methylsulfonyloxyphenyl)pentane], the EC50 was found to be 2.21 nM in data set [2], 86.6 nM in data set [3] and 2.4 nM in data set [4].

The record behind these values is US7750184B2, “Vitamin D receptor modulators” (Eli Lilly and Company, priority 2003, dated 2010).
